Source: patent publication EP3717657B1, “A SYSTEM FOR ASSESSING MICROBIAL SUSCEPTIBILITY TO ANTIBIOTIC AGENTS” (Ascilion AB, priority 2017, dated 2019)

How the values were obtained:
[1] = test system: Escherichia coli (ATCC 25922); assay: Antibiotic susceptibility by glucose consumption in culture medium, blood culture bottle inoculum (Example 1); assay type: cell-based; details: for Glucose concentration t=60: 60 minutes; for Glucose concentration t=120: 120 minutes; for Glucose concentration t=180: 180 minutes; for dC/dT: rate of change in glucose concentration;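 as to dC/dT: rate calculated between the 60 and 180 min readings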
Protocol: (§1) Strains of Escherichia coli (ATCC 25922), Enterococcus faecalis (ATCC 29212) and Staphylococcus aureus (ATCC 29213) were inoculated in blood culture bottles (SVA, Uppsala, Sweden) and cultivated according to the manufacturer's instructions until positive.
(§2) Medium from each blood culture bottle was diluted 1:100 with cation adjusted Mueller-Hinton broth (SVA, Uppsala, Sweden) supplemented with glucose to a concentration of 1.0 mg/mL.
(§3) Table 1: Concentrations of antibiotic agents are given in µg/mL.
(§4) Glucose concentrations were measured at 0, 60, 120, 180, and 240 minutes using a WaveSense Jazz glucometer (AgaMatrix, Inc., Salem, NH, USA) with accompanying test strips.
(§5) Susceptibility scores corresponding to MIC values were calculated as described above. A 80% threshold was applied, i.e. the lowest concentration of antibiotic that entailed a rate of change in glucose concentration that was equal to or less than 80% of the reference was selected as the Minimal Inhibitory Concentration. The rate of change was calculated between the measurements at 60 and 180 minutes.

[2] = test system: Enterococcus faecalis (ATCC 29212); assay: as above; assay type: cell-based; details: for Glucose concentration t=0: 0 minutes; for Glucose concentration t=60: 60 minutes; for Glucose concentration t=120: 120 minutes; for Glucose concentration t=180: 180 minutes; for dC/dT: rate of change in glucose concentration; for Glucose concentration t=240: 240 minutes;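 as to dC/dT: rate calculated between the 60 and 180 min readings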
Protocol: as §1, §2, §3, §4, §5

Compound: CN[C@H](CC(C)C)C(=O)N[C@H]1C(=O)N[C@@H](CC(N)=O)C(=O)N[C@H]2C(=O)N[C@H]3C(=O)N[C@H](C(=O)N[C@H](C(=O)O)c4cc(O)cc(O)c4-c4cc3ccc4O)[C@H](O)c3ccc(c(Cl)c3)Oc3cc2cc(c3O[C@@H]2O[C@H](CO)[C@@H](O)[C@H](O)[C@H]2O[C@H]2C[C@](C)(N)[C@H](O)[C@H](C)O2)Oc2ccc(cc2Cl)[C@H]1O [Vancomycin]
- F=the rate of change in glucose concentration in relation to the reference ([1]; [Ab] 0,5 µg/mL): 65%
- Glucose concentration t=60 ([1]; [Ab] 0,5 µg/mL): 149
- Glucose concentration t=120 ([1]; [Ab] 0,5 µg/mL): 145
- Glucose concentration t=180 ([1]; [Ab] 0,5 µg/mL): 68
- dC/dT ([1]; [Ab] 0,5 µg/mL): 41
- F=the rate of change in glucose concentration in relation to the reference ([1]; [Ab] 0,25 µg/mL): 68%
- Glucose concentration t=60 ([1]; [Ab] 0,25 µg/mL): 150
- Glucose concentration t=120 ([1]; [Ab] 0,25 µg/mL): 145
- Glucose concentration t=180 ([1]; [Ab] 0,25 µg/mL): 66
- dC/dT ([1]; [Ab] 0,25 µg/mL): 42
- F=the rate of change in glucose concentration in relation to the reference ([1]; [Ab] 1 µg/mL): 73%
- Glucose concentration t=60 ([1]; [Ab] 1 µg/mL): 155
- Glucose concentration t=120 ([1]; [Ab] 1 µg/mL): 149
- Glucose concentration t=180 ([1]; [Ab] 1 µg/mL): 65
- dC/dT ([1]; [Ab] 1 µg/mL): 45
- F=the rate of change in glucose concentration in relation to the reference ([1]; [Ab] 2 µg/mL): 65%
- Glucose concentration t=60 ([1]; [Ab] 2 µg/mL): 147
- Glucose concentration t=120 ([1]; [Ab] 2 µg/mL): 151
- Glucose concentration t=180 ([1]; [Ab] 2 µg/mL): 67
- dC/dT ([1]; [Ab] 2 µg/mL): 40
- F=the rate of change in glucose concentration in relation to the reference ([1]; [Ab] 4 µg/mL): 69%
- Glucose concentration t=60 ([1]; [Ab] 4 µg/mL): 147
- Glucose concentration t=120 ([1]; [Ab] 4 µg/mL): 145
- Glucose concentration t=180 ([1]; [Ab] 4 µg/mL): 61
- dC/dT ([1]; [Ab] 4 µg/mL): 43
- F=the rate of change in glucose concentration in relation to the reference ([1]; [Ab] 8 µg/mL): 87%
- Glucose concentration t=60 ([1]; [Ab] 8 µg/mL): 159
- Glucose concentration t=120 ([1]; [Ab] 8 µg/mL): 147
- Glucose concentration t=180 ([1]; [Ab] 8 µg/mL): 51
- dC/dT ([1]; [Ab] 8 µg/mL): 54
- F=the rate of change in glucose concentration in relation to the reference ([1]; [Ab] 0,125 µg/mL): 71%
- Glucose concentration t=60 ([1]; [Ab] 0,125 µg/mL): 153
- Glucose concentration t=120 ([1]; [Ab] 0,125 µg/mL): 154
- Glucose concentration t=180 ([1]; [Ab] 0,125 µg/mL): 65
- dC/dT ([1]; [Ab] 0,125 µg/mL): 44
- F=the rate of change in glucose concentration in relation to the reference ([1]; [Ab] 0,0625 µg/mL): 67%
- Glucose concentration t=60 ([1]; [Ab] 0,0625 µg/mL): 148
- Glucose concentration t=120 ([1]; [Ab] 0,0625 µg/mL): 144
- Glucose concentration t=180 ([1]; [Ab] 0,0625 µg/mL): 65
- dC/dT ([1]; [Ab] 0,0625 µg/mL): 42
- F=the rate of change in glucose concentration in relation to the reference ([2]; [Ab] 0,5 µg/mL): 82%
- Glucose concentration t=0 ([2]; [Ab] 0,5 µg/mL): 154
- Glucose concentration t=60 ([2]; [Ab] 0,5 µg/mL): 155
- Glucose concentration t=120 ([2]; [Ab] 0,5 µg/mL): 148
- Glucose concentration t=180 ([2]; [Ab] 0,5 µg/mL): 96
- dC/dT ([2]; [Ab] 0,5 µg/mL): 30
- F=the rate of change in glucose concentration in relation to the reference ([2]; [Ab] 0,25 µg/mL): 82%
- Glucose concentration t=0 ([2]; [Ab] 0,25 µg/mL): 143
- Glucose concentration t=60 ([2]; [Ab] 0,25 µg/mL): 155
- Glucose concentration t=120 ([2]; [Ab] 0,25 µg/mL): 146
- Glucose concentration t=180 ([2]; [Ab] 0,25 µg/mL): 96
- dC/dT ([2]; [Ab] 0,25 µg/mL): 30
- F=the rate of change in glucose concentration in relation to the reference ([2]; [Ab] 1 µg/mL): 75%
- Glucose concentration t=0 ([2]; [Ab] 1 µg/mL): 151
- Glucose concentration t=60 ([2]; [Ab] 1 µg/mL): 164
- Glucose concentration t=120 ([2]; [Ab] 1 µg/mL): 153
- Glucose concentration t=180 ([2]; [Ab] 1 µg/mL): 110
- dC/dT ([2]; [Ab] 1 µg/mL): 27
- F=the rate of change in glucose concentration in relation to the reference ([2]; [Ab] 2 µg/mL): 29%
- Glucose concentration t=0 ([2]; [Ab] 2 µg/mL): 147
- Glucose concentration t=60 ([2]; [Ab] 2 µg/mL): 160
- Glucose concentration t=120 ([2]; [Ab] 2 µg/mL): 152
- Glucose concentration t=180 ([2]; [Ab] 2 µg/mL): 139
- Glucose concentration t=240 ([2]; [Ab] 2 µg/mL): 94
- dC/dT ([2]; [Ab] 2 µg/mL): 11
- F=the rate of change in glucose concentration in relation to the reference ([2]; [Ab] 4 µg/mL): 19%
- Glucose concentration t=0 ([2]; [Ab] 4 µg/mL): 147
- Glucose concentration t=60 ([2]; [Ab] 4 µg/mL): 162
- Glucose concentration t=120 ([2]; [Ab] 4 µg/mL): 153
- Glucose concentration t=180 ([2]; [Ab] 4 µg/mL): 148
- Glucose concentration t=240 ([2]; [Ab] 4 µg/mL): 149
- dC/dT ([2]; [Ab] 4 µg/mL): 7
- F=the rate of change in glucose concentration in relation to the reference ([2]; [Ab] 8 µg/mL): 7%
- Glucose concentration t=0 ([2]; [Ab] 8 µg/mL): 150
- Glucose concentration t=60 ([2]; [Ab] 8 µg/mL): 156
- Glucose concentration t=120 ([2]; [Ab] 8 µg/mL): 146
- Glucose concentration t=180 ([2]; [Ab] 8 µg/mL): 151
- Glucose concentration t=240 ([2]; [Ab] 8 µg/mL): 145
- dC/dT ([2]; [Ab] 8 µg/mL): 3
- F=the rate of change in glucose concentration in relation to the reference ([2]; [Ab] 0,125 µg/mL): 83%
- Glucose concentration t=0 ([2]; [Ab] 0,125 µg/mL): 148
- Glucose concentration t=60 ([2]; [Ab] 0,125 µg/mL): 154
- Glucose concentration t=120 ([2]; [Ab] 0,125 µg/mL): 149
- Glucose concentration t=180 ([2]; [Ab] 0,125 µg/mL): 94
- dC/dT ([2]; [Ab] 0,125 µg/mL): 30
- F=the rate of change in glucose concentration in relation to the reference ([2]; [Ab] 0,0625 µg/mL): 93%
- Glucose concentration t=0 ([2]; [Ab] 0,0625 µg/mL): 145
- Glucose concentration t=60 ([2]; [Ab] 0,0625 µg/mL): 156
- Glucose concentration t=120 ([2]; [Ab] 0,0625 µg/mL): 139
- Glucose concentration t=180 ([2]; [Ab] 0,0625 µg/mL): 89
- dC/dT ([2]; [Ab] 0,0625 µg/mL): 34
